Broadly, the IC50 is the concentration needed to halve the response being measured.

Drawing on US7417053B2, “Pyrazolo[1,5-a]pyridine derivatives or pharmaceutically acceptable salts thereof” (Teijin Pharma Limited, priority 2005, dated 2008), this text covers IC50 for 26 molecules.

Where a name gives a salt, the structure may show the parent alone.

recombinant human MAPKAP-K2, sequence (P49137 whole entry): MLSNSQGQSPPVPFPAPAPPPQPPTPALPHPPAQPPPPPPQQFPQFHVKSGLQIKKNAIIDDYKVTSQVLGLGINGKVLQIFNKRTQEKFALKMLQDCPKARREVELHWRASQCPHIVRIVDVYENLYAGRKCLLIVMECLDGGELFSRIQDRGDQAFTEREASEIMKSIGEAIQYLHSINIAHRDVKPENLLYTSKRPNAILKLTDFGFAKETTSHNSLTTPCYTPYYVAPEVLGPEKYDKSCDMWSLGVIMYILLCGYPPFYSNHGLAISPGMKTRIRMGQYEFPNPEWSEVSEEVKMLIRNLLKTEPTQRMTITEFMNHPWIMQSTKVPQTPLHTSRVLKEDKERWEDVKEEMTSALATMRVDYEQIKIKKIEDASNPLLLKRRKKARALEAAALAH

This experiment addresses recombinant human MAPKAP-K2 (Homo sapiens, UniProt P49137). Briefly: Inhibitory activity against MAPKAP-K2 enzyme (33P-ATP peptide phosphorylation). Format: biochemical. The conditions noted are these: recombinant human MAPKAP-K2, ATP 20 μmol/L solution, room temperature 30 min; read-out: Activity Strength (MAPKAP-K2 IC50 value). The protocol: General Measurement Method for Determining the Inhibitory Activity Against MAPKAP-K2 enzyme
(Preparation of Solutions of Compounds)
Each compound was dissolved in DMSO to prepare a solution with a concentration of 20 mmol/L and this solution was stored at −20° C. This stock solution was diluted with DMSO successively to prepare solutions with 200-fold concentrations of a necessary range. These solutions were further diluted with water at a ratio of 1:20 to prepare solutions with 10-fold concentrations of a necessary range. Each of these solutions (5 μL) was used for each reaction in 50 μL-scale. Through the dilution series of all compounds, the final DMSO concentration was kept at 0.5%. Conventional tests for the compounds were carried out at a final concentration range from 100 μmol/L to 0.03 μmol/L. but in some cases, tests were carried out at lower concentrations, depending on activity.
(Measurements of MAPKAP-K2 Enzyme Activities)
To a 5% DMSO aqueous solution (5 μL) of a test compound, a solution (25 μL) containing a peptide substrate [peptide substrate 60 μmol/L, ATP 20 μmol/L, Tris buffer 60 mmol/L (pH 7.5), EGTA 0.2 mmol/L, β-mercaptoethanol 0.2%, magnesium acetate 20 mmol/L, [γ-33P]ATP 0.1 μCi (specific radioactivity ca. 110 TBq/mmol)] was added. The reaction was initiated by adding a solution (20 μL) containing MAPKAP-K2 enzyme [recombinant human MAPKAP-K2 10 mU, Tris buffer […] (pH 7.5), EGTA 0.1 mmol/L, β-mercaptoethanol 0.1%, BSA 0.1%]. After the reaction was carried out at room temperature for 30 min, 200 mmol/L phosphoric acid (50 μL) was added to quench the reaction, and 90 μL of the reaction mixture was adsorbed on a multiscreen PH plate (Millipore). The plate was washed with 100 mmol/L phosphoric acid. After the plate was dried, 30 μL of MicroScint-O (Perkin-Elmer) was added, and the count per minute was measured on a scintillation counter to determine the inhibitory activity. The peptide substrate was Lys-Lys-Leu-Asn-Arg-Thr-Leu-Ser-Val-Ala.
• % Reference=(X−B)/(Tot−B)×100 • % Inhibition=100−% Reference • X represents count per minute of the well with a test compound applied. • B represents count per minute of the well without the enzyme. • Tot represents count per minute of the well with only DMSO solvent and no test compound applied. (Calculation of MAPKAP-K2 Inhibitory Activity) • IC50 value represents a concentration of compound at which 50% inhibition is observed.
As to `CCOc1ccc(Nc2c(C)c(N[C@H]3CCCC[C@@H]3N)c(C#N)c3ccnn23)cc1` (relative stereo) [Compound 101, 5-[(trans-2-Aminocyclohexyl)amino]-7-(4-ethoxyphenylamino)-6-methylpyrazolo[1,5-a]pyridine-4-carbonitrile trifluoroacetate salt], the IC50 lay in the range of 10 to 100 µM.
For the molecule `CCOc1ccc(Nc2c(C)c(N[C@H]3CCCNC3)c(C#N)c3ccnn23)cc1` [Compound 85, 5-[(3S)-3-piperidylamino]-7-(4-ethoxyphenylamino)-6-methylpyrazolo[1,5-a]pyridine-4-carbonitrile], the IC50 is below 0.2 µM.
Under `C=CCc1c(N[C@H]2CCCNC2)c(C#N)c2ccnn2c1Nc1ccc(OCC)cc1` [Compound 86, 5-[(3S)-3-Piperidylamino]-7-(4-ethoxyphenylamino)-6-(2-propenyl)pyrazolo[1,5-a]pyridine-4-carbonitrile trifluoroacetate salt] stands below 0.2 µM.
On to `COCCOc1ccc(Nc2c(C)c(N[C@H]3CCCNC3)c(C#N)c3ccnn23)cc1` [Compound 87, 5-[(3S)-3-Piperidylamino]-7-[4-(2-methoxyethoxy)phenylamino]-6-methylpyrazolo[1,5-a]pyridine-4-carbonitrile trifluoroacetate salt], for which the IC50 was below 0.2 µM.
Under `COCCOc1ccc(Nc2c(C)c(N[C@H]3CCNC3)c(C#N)c3ccnn23)cc1` [Compound 88, 5-[(3S)-3-Pyrrolidylamino]-7-[4-(2-methoxyethoxy)phenylamino]-6-methylpyrazolo[1,5-a]pyridine-4-carbonitrile trifluoroacetate salt] stands 0.2 to 1 µM.
The result for `COCCOc1ccc(Nc2c(C)c(N[C@H]3CC[C@H](N)CC3)c(C#N)c3ccnn23)cc1` [Compound 89, 5-(trans-4-Aminocyclohexylamino)-7-[4-(2-methoxyethoxy)phenylamino]-6-methylpyrazolo[1,5-a]pyridine-4-carbonitrile trifluoroacetate salt] reads below 0.2 µM; that for `CCOc1ccc(Nc2c(CCO)c(N[C@H]3CCCNC3)c(C#N)c3ccnn23)cc1` [Compound 90, 5-[(3S)-3-Piperidylamino]-7-(4-ethoxyphenylamino)-6-(2-hydroxyethyl)pyrazolo[1,5-a]pyridine-4-carbonitrile], below 0.2 µM; that for `Cc1nc2ccc(Nc3c(C)c(N[C@H]4CCCNC4)c(C#N)c4ccnn34)cc2s1` [Compound 91, 5-[(3S)-3-Piperidylamino]-7-(2-methylbenzothiazol-6-ylamino)-6-methylpyrazolo[1,5-a]pyridine-4-carbonitrile], below 0.2 µM.
`CCOc1ccc(Nc2cc(N[C@H]3CCCNC3)c(C#N)c3ccnn23)cc1` [Compound 92, 5-[(3S)-3-Piperidylamino]-7-(4-ethoxyphenylamino)pyrazolo[1,5-a]pyridine-4-carbonitrile trifluoroacetate salt]: the IC50 lay in the range of 0.2 to 1 µM.
Under `N#Cc1c(N[C@H]2CCCNC2)cc(Nc2ccccc2Cl)n2nccc12` [Compound 93, 5-[(3S)-3-Piperidylamino]-7-(2-chlorophenylamino)pyrazolo[1,5-a]pyridine-4-carbonitrile trifluoroacetate salt] stands 0.2 to 1 µM; under `N#Cc1c(N[C@H]2CC[C@H](N)CC2)cc(Nc2ccccc2Cl)n2nccc12` [Compound 94, 5-(trans-4-Aminocyclohexylamino)-7-(2-chlorophenylamino)pyrazolo[1,5-a]pyridine-4-carbonitrile trifluoroacetate salt], 0.2 to 1 µM; under `CCOc1ccc(Nc2c(-c3ccccc3)c(NC3CCCNC3)c(C#N)c3ccnn23)cc1` (centres unmarked) [Compound 95, 5-(3-Piperidylamino)-7-(4-ethoxyphenylamino)-6-phenylpyrazolo[1,5-a]pyridine-4-carbonitrile trifluoroacetate salt], 0.2 to 1 µM.
Under `Cc1nc2ccc(Nc3cc(N[C@H]4CC[C@H](N)CC4)c(C#N)c4ccnn34)cc2s1` [Compound 96, 5-(trans-4-Aminocyclohexylamino)-7-(2-methylbenzothiazol-6-ylamino)pyrazolo[1,5-a]pyridine-4-carbonitrile trifluoroacetate salt] stands 0.2 to 1 µM; under `N#Cc1c(N[C@H]2CC[C@H](N)CC2)cc(Nc2ccc(-c3ccccc3)cc2)n2nccc12` [Compound 97, 5-(trans-4-Aminocyclohexylamino)-7-(4-biphenylylamino)pyrazolo[1,5-a]pyridine-4-carbonitrile trifluoroacetate salt], below 0.2 µM.
Turning to `COc1ccccc1Nc1cc(N[C@H]2CC[C@H](N)CC2)c(C#N)c2ccnn12` [Compound 98, 5-(trans-4-Aminocyclohexylamino)-7-(2-methoxyphenylamino)pyrazolo[1,5-a]pyridine-4-carbonitrile trifluoroacetate salt], the IC50 was 0.2 to 1 µM.
Regarding `CSc1ccccc1Nc1cc(N[C@H]2CC[C@H](N)CC2)c(C#N)c2ccnn12` [Compound 99, 5-(trans-4-Aminocyclohexylamino)-7-(2-methylthiophenylamino)pyrazolo[1,5-a]pyridine-4-carbonitrile trifluoroacetate salt], the IC50 was in the range of 1 to 10 µM.
Take `N#Cc1c(N[C@H]2CCCNC2)cc(Nc2ccc(-c3ccccc3)cc2)n2nccc12` [Compound 100, 5-[(3S)-3-Piperidylamino]-7-(4-biphenylylamino)pyrazolo[1,5-a]pyridine-4-carbonitrile trifluoroacetate salt]: the IC50 lay within 0.2 to 1 µM.
The result for `CCOc1ccc(Nc2c(C)c(N[C@H]3CC[C@H](N)CC3)c(C#N)c3ccnn23)cc1` [Compound 102, 5-[(trans-4-Aminocyclohexyl)amino]-7-(4-ethoxyphenylamino)-6-methylpyrazolo[1,5-a]pyridine-4-carbonitrile trifluoroacetate salt] reads below 0.2 µM; that for `CCOc1ccc(Nc2c(C)c(NC3CCNCC3)c(C#N)c3ccnn23)cc1` [Compound 103, 7-(4-Ethoxyphenylamino)-6-methyl-5-(4-pyperidylamino)pyrazolo[1,5-a]pyridine-4-carbonitrile trifluoroacetate salt], 0.2 to 1 µM; that for `CCOc1ccc(Nc2c(C)c(NC3CCCC(N)C3)c(C#N)c3ccnn23)cc1` (centres unmarked) [Compound 104, 5-[(3-Aminocyclohexyl)amino]-7-[(4-ethoxyphenyl)amino]-6-methylpyrazolo[1,5-a]pyridine-4-carbonitrile trifluoroacetate salt], 1 to 10 µM.
`CCOc1ccc(Nc2c(CC)c(N[C@H]3CCCNC3)c(C#N)c3ccnn23)cc1` [Compound 105, 5-[(3S)-3-Piperidylamino]-7-(4-ethoxyphenylamino)-6-ethylpyrazolo [1,5-a]pyridine-4-carbonitrile]: the IC50 is below 0.2 µM.
With `CCOc1ccc(Nc2c(C)c(NCCN)c(C#N)c3ccnn23)cc1` [Compound 106, 5-[(2-Aminoethyl)amino]-7-[(4-ethoxyphenyl)amino]-6-methylpyrazolo[1,5-a]pyridine-4-carbonitrile trifluoroacetate salt], the IC50 was 0.2 to 1 µM.
Under `CCOc1ccc(Nc2c(C)c(NCCCN)c(C#N)c3ccnn23)cc1` [Compound 107, 5-[(3-Aminopropyl)amino]-7-[(4-ethoxyphenyl)amino]-6-methylpyrazolo[1,5-a]pyridine-4-carbonitrile trifluoroacetate salt] stands 0.2 to 1 µM; under `CCOc1ccc(Nc2c(C)c(NCCCCN)c(C#N)c3ccnn23)cc1` [Compound 108, 5-[(4-Aminobutyl)amino]-7-[(4-ethoxyphenyl)amino]-6-methylpyrazolo[1,5-a]pyridine-4-carbonitrile trifluoroacetate salt], 0.2 to 1 µM; under `CCOc1ccc(Nc2c(CC)c(N[C@H]3CC[C@H](N)CC3)c(C#N)c3ccnn23)cc1` [Compound 109, 5-(trans-4-Aminocyclohexylamino)-7-(4-ethoxyphenylamino)-6-ethylpyrazolo[1,5-a]pyridine-4-carbonitrile], below 0.2 µM.
Under `CCOc1ccc(Nc2c(C)c(N[C@H]3CC[C@H](NCC(C)C)CC3)c(C#N)c3ccnn23)cc1` [Compound 110, 7-[(4-Ethoxyphenyl)amino]-6-methyl-5-(trans-{4-[(2-methylpropyl)amino]cyclohexyl}amino)pyrazolo[1,5-a]pyridine-4-carbonitrile trifluoroacetate salt] stands below 0.2 µM.
